From patent publication US10624913B2, “Diagnostics and methods for treatment of non-alcoholic hepatic steatosis and hepatic steatohepatitis, and prevention of complications thereof” (VOLANT HOLDINGS GMBH, priority 2011, dated 2020)
Structures can show the parent of a compound that is named as a salt.

What was measured:
[1] = system: patients with multiple manifestations of MetS; assay: Treatment comparison of RYGB, Brake or atorvastatin (Lipitor), each added to standard of care (Example 3); format: in vivo, human; settings: for LDL percent change: from baseline
From the text: FIG. 20. […] All patients were given 10 gm Brake™ once Daily, orally, 4 hrs prior to their main meal Pertinent demographic and clinical data were retrieved from medical records for all patients, and shown in FIG. 21. Variables included age, gender, body weight, lipid panel (low-density lipoprotein [LDL], high-density lipoprotein [HDL], triglycerides [TG], and total cholesterol [TC]), HbA1c, and liver function tests (aspartate aminotransferase [AST] and alanine aminotransferase [ALT]). Patients were followed monthly for up to one year to assess changes in the above stated variables. […] From the beginning, the patients who began the study with abnormal findings were separated from the patients with initially normal values and those with abnormal findings were further analyzed to define the magnitude of change as well as the percent change from baseline pre-therapy. Descriptive statistics were used in analyzing the baseline characteristics of each cohort. In addition to counts of how many patients had values above threshold, all descriptive characteristics are reported for each group as percentages and mean values, or where appropriate, the binary distribution percentages. […] This testing was applied to case and control cohorts: (a) using data for all treated patients, (b) using data for only those with abnormal range baselines (c) using cases where the initial value was within the normal range for the laboratory. Data were subsequently analyzed for percent change by biomarker from both of these two perspectives. Comparisons between groups were performed by mixed analysis of variances with a post hoc correction for multiple comparisons to analyze differences between treatments. Data are presented as mean±standard deviation (unless otherwise specified). A p<0.05 was considered evidence of significant change. All statistical analyses were conducted using SAS version 9.4 (SAS institute, Cary, N.C.).

Hepatitis C virus = assay: Hepatitis C patient cases: viral load; format: in vivo, human; settings: Patient E1 on combination; words
Protocol: Case 1: A Hepatitis C Patient with Moderate Viral Load Treated with Brake™ Alone, with the Goal to Evaluate the Secondary Antiviral Impact of Improving the Hepatic Steatosis
Patient M1 was a person with a normal BMI.
They were not on Hepatitis C treatment since 2007; no antiviral drugs in the 3 years prior to Brake™ therapy. Treatment Course: Aphoeline Brake™ (formulation II) was added to their treatment at their second visit.
A Hepatitis C Patient with Combination Treatment of Brake™ and pegIFN/Riba, a Test of the Ability of Combinations to Reduce Viral Load Over that of pegIFN/Riba Alone
After two months with only moderate viral load response to this increased dosage, the patient had the addition of 10 gm per day of Aphoeline Brake™ added to their maximal dose pegIFN/Riba regimen.
Case 3: A Hepatitis C Patient with Advanced Cirrhosis, Treated with Brake™ Alone, a Test of the Ability to Control Hepatic Steatosis in the Face of Minimal Action on the Viral Load
Patient L1 is a Overweight (5′3″ 202 lb) but not overtly T2D […] with Hepatitis C genotype 1a since ˜2002. They had previously been treated with pegIFN/Riba but had been considered a failure in 2005. They have been untreated for Hepatitis C since that time. […] Their bilirubin was 1.5 when seen and they were on the liver transplant list. Their chronic medications included spironolactone, rifaximin, and nexium. […]

[2] = system: metabolic syndrome / cardiovascular risk (FS index, CV index); assay: Cross comparison of FS index and CV index in treated patients (Example 2); format: in vivo, human; settings: before, at 6 and 12 months, added to SoC; words
Protocol: Here we compare the same patients using FS index and CV index, in order to establish concordance in the risk scoring. We also include patients with MIs as examples of patients with CV events. For each of these patients, the FS index was calculated and the CV index was calculated, using an electronic spreadsheet designed for this purpose, and with the goal to evaluate concordance in the risk scoring. We also include patients with MIs as examples of patients with CV events.
To assess changes in metabolic syndrome, patient characteristics were analyzed using the FS Index.(44) Briefly, the FS index is a method for assessing cardiovascular risk associated with the glucose supply side in metabolic syndrome and T2D patients. The FS index is obtained from the individual patient's biological parameters, wherein a FS index value of greater than 60 is indicative that the individual is in need of therapy for metabolic syndrome or at risk for at least one cardiovascular complication associated with metabolic syndrome.

[3] = system: ileal brake (PYY, motilin); settings: ileal infusions in different amounts; words; cited from earlier work
[4] = system: patients with incident AF; assay: Longitudinal cohort study of atrial fibrillation patients with or without warfarin; format: in vivo, human; settings: adjusted for age and CHADS2; 95% CI 0.85, 2.13; not statistically significant
Protocol: We performed a longitudinal, cohort study with pharmacy and medical claims from 1997 to 2008 from a local health maintenance organization. Participants were identified with incident AF irrespective of warfarin status and followed through their duration within the database. Three clinical outcome measures were assessed including stroke, myocardial infarction, and bleeding. A neural net model was developed to identify patients at high risk of clinical event and defined to be an ‘enriched’ patient. The model defines the enrichment based on the top 10 minimum mean square error (MMSE) output parameters that describe the three clinical outcomes. The MMSE ranks the parameters in order from best to worst predictability when modeling the outputs. Predictors and outcome measures were ascertained with cox proportional hazards models.

[5] = decline from pre-treatment baseline, added to SoC, FIG. 21

In the case of `CC(C)c1c(C(=O)Nc2ccccc2)c(-c2ccccc2)c(-c2ccc(F)cc2)n1CC[C@@H](O)C[C@@H](O)CC(=O)O` (relative stereo) [atorvastatin, [R—(R*,R*)]-2-(4-fluorophenyl)-β,δ-dihydroxy-5-(l-methylethyl)-3-phenyl-4-[(phenylamino)-carbonyl]-1H-pyrrole-1-heptanoic acid; calcium salt (2:1) trihydrate], the Total cholesterol decline ([1]; abnormal baseline cases, 6 and 12 months of treatment) is reported as 3.2%, the Body weight decline ([1]; at 12 months) is reported as 2.6% and the ALT decline [1, 5] is reported as “essentially no decline”. For the same molecule, the AST decline [1, 5] was 3.5%, the Triglyceride concentration decline [1, 5] was 18% and the HDL values ([1]; high dose (40 mg) atorvastatin alone, words) was “decreased”. The LDL percent change ([1]; high dose (40 mg) atorvastatin, FIG. 21) was −22.7%, the LDL percent change ([1]; low dose atorvastatin, FIG. 21) was −10.1% and the HDL values ([1]; low dose atorvastatin, words) was “increased”. The “Changes baseline to post treatment in triglycerides” value ([1]; words) was “negligible” and the “Changes in ALT and AST over pre treatment baseline” value ([1]; words, atorvastatin 10 mg or 40 mg) was “Only minor changes”.
In the case of `COc1cc(/C=C/C(=O)CC(=O)/C=C/c2ccc(O)c(OC)c2)ccc1O` [curcumin], the “Hepatitis C virus status / control of viral load” value (Hepatitis C virus) is reported as “loss of control for viral load”.
For `CN(C)C(=N)N=C(N)N` [metformin], the “Changes in FS index over pre-treatment baseline” value [2] was “did not change the FS index”.
In the case of `CCCCCCCC/C=C\CCCCCCCC(=O)O` [oleic acid], the PYY levels [3] is listed as “dose-dependent increase” and the motilin levels [3] is listed as “borderline decrease”.
With `CC(=O)CC(c1ccccc1)c1c(O)c2ccccc2oc1=O` (stereo not shown) [warfarin] the “risk of negative clinical outcomes (aHR)” value [4] was 1.35.
